Experimental findings from patent US9884874B2, “Bromodomain-inhibiting compounds and pharmaceutical composition comprising same for preventing or treating a cancer” (KAINOS MEDICINE, INC., priority 2014, dated 2018) are described below.

Series [1] is described as follows: Animal pharmacokinetics in ICR mice. Format: in vivo. Particulars: ICR, mouse, 10 mg/kg. On the procedure:
Pharmacokinetics of the compounds of 1, 2, 7, 8 11 and 15 were evaluated in ICR mice (6˜8 weeks, 20˜25 g) following intravenous (IV) administration at 10 mg/kg and per oral (PO) administration at 10 mg/kg dose level, respectively. Especially, the additional dose level of Compound 1 was 30 mg/kg.
For serum compound analysis, blood samples were collected by cardiac puncture over 24 hr time course. 20 μL of spiked plasma was added into a 96-well plate, adding ten volumes of internal standard (IS) in acetonitrile (ACN) to the obtained precipitated protein mixed thoroughly, centrifuged at 4,000 rpm for 10 min. 150 μL of supernatant thus obtained was transferred to another pre-labeled 96-well plate, mixed with 150 μL of water. 5 μL or 10 μL of the mixture was injected into the LC-MS system under the following conditions:
Column: API-4000+Waters UPLC (TCLM08);
Lower limit of quantification (LLOQ) was at 1 ng/mL. Pharmacokinetic parameters of half-life (T1/2), clearance (CL), maximum plasma concentration (Cmax), mean residence time (MRT) and bioavailability (F %), plasma exposure (AUC) of the compound were calculated using Phoenix WinNonlin 6.3 (non-compartmental model).

The subject of the next series is SK-LU-1 (adenocarcinoma). In words: Anti-proliferative activity, SK-LU-1. Format: cell-based. As to conditions: Homo sapiens, SKLU-1 (Adenocarcinoma), read-out: Cell proliferation, IC50.
Series [2] relates to LnCAP (human prostatic adenocarcinoma cell line). In words: Anti-proliferative activity test (CellTiter-Glo), LnCAP. Format: cell-based. As to conditions: first value of LnCAP/MV4-11 cell, read-out: Cell proliferation IC50 (LnCAP). The protocol: (§1) IC50 (uM) of the compounds obtained in Examples 1 to 18 against hematological cancer cells and solid tumors was measured for identifying anti-proliferative activities.
(§2) A human prostatic adenocarcinoma cell line, LnCAP (ATCC®, CRL-1740) and human leukemia cell line MV4-11 (ATCC®, CRL-9591) were used to test the degrees of the compounds 1 to 18 in inhibiting the cancer cell growth. The testing cell concentration was adjusted to 6.7×10^3 cells/ml with a culture medium supplemented with 10% FBS, in the temperature of 37° C., 5% CO2 and 95% humidity. Culture media and FBS were purchased from GIBCO. 90 μL of cell suspensions thus obtained was added to two 96-well plates with the final cell density of 600 cells/well, followed by addition of 10 μL of culture medium to each well of plate. The plates were incubated overnight in a humidified incubator at 37° C. with 5% CO2.
(§3) Compounds 1 to 18 were each dissolved with dimethylsulfoxide (DMSO) or phosphate buffer solution (PBS) as a stock solution, and 200× solutions of test compound (2 mM) using DMSO were prepared. Then, the DMSO solution thus obtained was diluted 20-fold with culture medium or PBS to obtain 10× working solution. 10 μL of 10× working solution (drug solution) was dispensed to each well (triplicate for each concentration). The final concentration of DMSO in culture medium was 0.5% [v/v].
(§4) Cell viability was determined using CellTiter-Glo® (CTG) assay. 100 μL of CellTiter-Glo® was added to the equal volume of the cultured cells to read luminescence in EnVision Multi Label Reader.

A further series deals with human BRD4 bromodomain 1 (Homo sapiens (Human), UniProt O60885). In words: Bromodomain binding assay (BRD4 Alpha-screen). As to conditions: acetylated histone H4 peptide. On the procedure: Bromodomain binding assays were carried out in Reaction Biology (PA, USA) to test the degrees of the inventive compounds in inhibiting the human BRD4 bromodomain 1 by Alpha-screen assay method.
Recombinant human BRD4 bromodomain 1 expressed in E. coli with N-terminal His-tag was used as the enzyme target.
A synthetic peptide ([…]-GSGSK-biotin) containing 1 to 21th amino acids of histone H4 acetylated at lysine 5, 8, 12 and 16 and conjugated to biotin was purchased from Millipore.
BRD4-1 (44 to 170th amino acids; Genbank Accession # NM_058243) was expressed in E. coli with N-terminal His-tag (see, Ni-NTA spin Kit Handbook (Qiagen), second edition, January, 2008). Nickel-Chelate ALPHA acceptor beads (Perkin Elmer) were used to specifically bind BRD4-1, and ALPHA streptavidin donor beads (Perkin Elmer) were used because they specifically recognized the biotinylated H4 peptide.
BRD binding assays were performed in a mixture comprising 50 mM Hepes (pH7.5), 100 mM NaCl, 0.05% CHAPS, 0.1% BSA, and 1% DMSO. After an assay reaction time of 60 min at 25° C., binding was measured with streptavidin donor beads and nickel-chelate acceptor beads. ALPHA signal was detected on Enspire (Ex/Em=680/520-620 nm). IC50 values were calculated from the fit of the dose-response curves. All IC50 values represent geometric mean values of a minimum of four determinations. These assays generally produced results within 3-fold of the reported mean.
(In Alpha technology, singlet oxygen from a donor bead excites a nearby acceptor bead.)

The test system of series [3] is A375 (malignant melanoma). In words: Anti-proliferative activity, A375. Format: cell-based. Particulars: Homo sapiens, A-375, read-out: Cell proliferation, IC50.
Series [4] deals with MV4-11 (human leukemia cell line). In words: Anti-proliferative activity test (CellTiter-Glo), MV4-11. It is filed as cell-based. As to conditions: second value of LnCAP/MV4-11 cell, read-out: Cell proliferation IC50 (MV4-11). The protocol: as §1, §2, §3, §4
In general terms: In ATP-based viability assays light output follows the ATP content of the culture.

Series [5] in a line: Mouse liver microsomal stability/clearance. It is filed as in vitro ADME. Particulars: mouse liver microsomes; second value of Human/Mouse cell; read-out: Liver microsomal clearance (Mouse). The protocol: (§5) Human and mouse liver microsomal clearance assays were carried out in CROWN Biosciences (Taicang, China). The human liver microsomes (Cat No. X008067, Lot No. KQB) and mouse liver microsomes (Cat No. M1000, Lot No. 1210302) were purchased from Celsis and Xenotech, respectively.
(§6) 5 μL of test compound stock solution was diluted with 495 μL of 1:1 Methanol/Water (final concentration: 100 μM, 50% MeOH) and combined with 534 μL of the respective liver microsome solution (final concentration: 1.111 μM, 0.555% MeOH). The final concentration of the liver microsome solution was 0.7 mg protein/mL.
(§7) Incubations of the liver microsome solutions were performed in a 96 well plate at 37° C. 90 μL of the liver microsome solutions were added to Blank, and 90 μL of working solution of the test compound was added to all plates except the Blank.
(§8) All plates thus obtained were warmed in water bath at 37° C. for 10 min, and 10 μL of NADPH co-factor solution comprising 42 mg of β-nicotinamide adenine dinucleotide phosphate (Sigma Cat. No. N0505 Lot 020M7009V), 84 mg of isocitric acid (Sigma Cat. No. 11252 Lot 119K1099) and 0.478 mL of isocitric dehydrogenase (Sigma Cat. No. 12002 Lot 086K7055, 15 units/mg protein, warmed in water bath at 37° C. for 5 min was added to the plates. The resulting plates were incubated at 37° C. in the following order: T60 (The test compounds were incubated with the liver microsomal solution and NADPH for 60 min at 37° C.), T30 (such as for 30 min.), and T10 (such as for 10 min.). 300 μL of a cold (4° C.) stop solution (acetonitrile (ACN) including 500 nM of tolbutamide as internal standard) and 10 μL of NADPH co-factor solution to starting plate (T0: 100% of the parent compound without any reaction) were added to the plates. The reaction was stopped by adding 300 μL of the cold (4° C.) stop solution to the other plates in the following order: T10 first, then T30 and T60.
(§9) The samples were centrifuged at 4,000 rpm for 20 min and transferred to Bioanalytical Services for liquid chromatography-mass spectrometry (LC-MS)/MS (Waters UPLC/API 4000, 10 μL injection) analysis.

Series [6] is described as follows: Human liver microsomal stability/clearance. Format: in vitro ADME. Particulars: human liver microsomes; first value of Human/Mouse cell; read-out: Liver microsomal clearance (Human). On the procedure: as §5, §6, §7, §8, §9
A general note: Liver microsomes are vesicles of endoplasmic reticulum, rich in cytochrome P450 enzymes.

The subject of another series is OPM-2 (multiple myeloma). In words: Anti-proliferative activity, OPM-2. Particulars: Homo sapiens, read-out: Cell proliferation, IC50. Format: cell-based.

The term AUC denotes the area under the concentration-time curve, a measure of exposure. One may read the MRT as a mean duration of stay, worked out from the concentration-time curve. Broadly, the clearance is a measure of how efficiently the substance is removed, as volume per time. Higher therefore signals a high capacity for elimination. As to `CCS(=O)(=O)OC[C@@H]1N=C(c2ccc(Cl)cc2)c2cc(OC)ccc2-n2c(C)nnc21` [Compound 2, (R)-(6-(4-chlorophenyl)-8-methoxy-1-methyl-4H-benzo[f][1,2,4]triazolo[4,3-a][1,4]diazepin-4-yl)methyl ethanesulfonate], the AUC in [1] (in vivo, IV) is 73 µM·h; in [1] (in vivo, PO) it was 66 µM·h. Besides, the MRT in [1] (in vivo, IV) was 3.9 h; in [1] (in vivo, PO) it was 4.1 h. Moreover, in [1] (in vivo, IV), the clearance was determined as 4.9 mL/min/kg. For the same compound, the bioavailability in series [1] (in vivo, PO) stood at 89.8%. The IC50 in the series with SK-LU-1 (adenocarcinoma) was determined as 1450 nM; in series [2] it was 600 nM; on human BRD4 bromodomain 1, 220 nM; in series [3] it was 9300 nM; in [4] it was 410 nM; with OPM-2 (multiple myeloma), 650 nM. In addition, the microsomal CLint at 1 µM in series [5] was 8.1 µL/min/mg; in series [6] it was 1.9 µL/min/mg.

With `Cc1sc2c(c1C)C(c1ccc(Cl)cc1)=N[C@@H](COS(C)(=O)=O)c1nnc(C)n1-2` [Compound 15, (R)-(4-(4-chlorophenyl)-2,3,9-trimethyl-6H-thieno[3,2-f][1,2,4]triazolo[4,3-a][1,4]diazepin-6-yl)methyl methanesulfonate], the exposure (AUC) in series [1] (plasma, IV) was found to be 27 µM·h; in [1] (plasma, PO), 31 µM·h. The MRT in series [1] (plasma, IV) turned out to be 1.9 h; in series [1] (plasma, PO), 2.5 h. In addition, the clearance in [1] (plasma, IV) is 13.5 mL/min/kg. Moreover, in [1] (plasma, PO), the bioavailability was 105%. The IC50 stood at 480 nM in series [2], 100 nM at human BRD4 bromodomain 1 and 500 nM in [4]. The values for the microsomal CLint at 1 µM in [5] and in series [6] were 22 µL/min/mg and 20 µL/min/mg, respectively.

Regarding `COc1ccc2c(c1)C(c1ccc(Cl)cc1)=N[C@@H](COS(N)(=O)=O)c1nnc(C)n1-2` [Compound 8, (R)-(6-(4-chlorophenyl)-8-methoxy-1-methyl-4H-benzo[f][1,2,4]triazolo[4,3-a][1,4]diazepin-4-yl)methyl sulfamate], the AUC turned out to be 41 µM·h in series [1] (in vivo, IV) and 31.5 µM·h in series [1] (in vivo, PO). This compound also had a clearance in series [1] (in vivo, IV) of 9 mL/min/kg. In addition, in series [1] (in vivo, PO), the bioavailability turned out to be 62.3%. For the same compound, the IC50 in series [2] came out at 960 nM; on human BRD4 bromodomain 1, 220 nM; in series [4] it was 1490 nM. The microsomal CLint at 1 µM in series [5] and in series [6] was 5 µL/min/mg in each case.
